This is an account of results in patent US20030003492A1, “Colorimetric nanocrystal sensors, methods of making, and use thereof” (priority 2001, published 2003).

One assay in a line: Binding to lipid A. The note with it: binding of lipid A; read-out: dissociation constant.
Assay [1] can be described thus: Binding to simple sugars like glucosamine. The note with it: much lower affinity than for lipid A.

For the substance “tetratryptophan ter-cyclopentane [TWTCP]”, the Kd in the assay “Binding to lipid A” was 0.592 µM; in assay [1], roughly 20 µM.
